Results from patent US20230121313A1 (priority 2019, published 2023).
Where “and” joins values, the source holds several entries; their conditions need not be identical. Equal entries are not always repeated. Entries after “also recorded” stand apart in the source; their conditions may differ. Structures can show the parent of a compound that is named as a salt. Marks after values point to notes of the source that are not given here.

How the values were obtained:
[1] = tested on: female Sprague-Dawley rats; experiment: 14-day repeated dose neurotoxicity study, intranasal esketamine HCl (clinical observations, brain histopathology, toxicokinetics); settings: for Abnormal respiration, incidence / Ataxia, incidence / Chromodacryorrhea, incidence / Decreased general activity, incidence / Decubitus, incidence / Increased general activity, incidence / Salivation (out of normal), incidence / audible respiration, incidence / bradypnoea, incidence: 14 days
From the text: (§1) For these studies, female specific pathogen free (SPF) Sprague-Dawley rats were used, which were approximately 12 to 14 weeks at start of dosing and weighed between 227 to 293 grams in the single dose study and between 235 to 296 grams in the 14-day repeated dose study. The rats were supplied by Charles River (Sulzfeld, Germany). They were group housed in polysulphone cages with floor area of 3000 cm^2 and Corn Cob (size 12, Eurocob, France) was provided as bedding material. Environmental enrichment existed of a rodent retreat (Bio-Serv, US) and aspen wood blocks (Datesand, UK). […] The animals were fed ad libitum with irradiated R/M-H pelleted maintenance diet from Ssniff (Germany). Hydrogel™ (supplied by Bio-services, Uden, the Netherlands) was provided to the MK-801 dosed rats in the single dose study.
Esketamine HCl was administered into each nostril of female rats at a volume of 50 μl per nostril either once, twice or thrice daily by intranasal instillation for 14 consecutive days at doses of 0 (vehicle), 18, 36 or 54 mg/day. At each instillation, the second nostril was dosed immediately after the first nostril. The interval between subsequent instillations into both nostrils was 5 minutes when dosed 2 or 3 times per day.
The vehicle control group received 3 subsequent intranasal instillations of the vehicle into both nostrils (50 μL per nostril) with 5-minute intervals for 14 consecutive days.
The positive control group received a single subcutaneous injection of (+)MK-801 at 48 hours prior to the necropsy of the vehicle control and esketamine HCl-treated animals.
Each group of main study animals consisted of 12 female rats. Four satellite animals were added to the esketamine HCl-dosed groups of main study animals for TK purposes. The plasma exposure to esketamine was measured in these animals on the first and the last day of dosing at various time points up to and including 24 hours after the first instillation.
Due to logistic constraints associated with the whole body perfusion procedure of the animals at necropsy, a staggered start was applied to the study. Consequently, all 5 groups of main study animals were divided into three subgroups of 4 animals each. For each of these subgroups treatment started on a different day. The perfusion procedure is the is the same as described for the single dose study.
All vehicle- and esketamine HCl-treated animals were sacrificed at 48 hours after the last instillation. […] The brain tissue of the vehicle control-, positive control- and esketamine HCl-treated rats were processed at the same time and handled in the same way in batches of 4 animals per group.
(§2) Furthermore, clinical observations were recorded for the esketamine HCl-dosed rats on the day of dosing at 0 till 5 minutes, 15 and 30 minutes, and at 1, 2, 4, 6 hours post-dose, at the end of the working day and at 24 hours after the last instillation in the single dose study and on the first day of dosing, after one week and towards the end of the dosing period in the repeated dose study. Body weight and body weight gain were measured daily. Food consumption was measured weekly in the repeated dose study.
On the day of terminal kill, a complete physical examination was performed on the rats in fasted condition and body weight was recorded. The surviving animals were anaesthetized by inhalation of an isoflurane (IsoFlo® Zoetis, Belgium)/oxygen mixture and killed by exsanguination via the carotid artery. […] All terminally killed rats or those killed pre-terminally were perfused with 4% paraformaldehyde in the single dose study and with glutaraldehyde 3% in potassium phosphate buffer 0.09 M with 1.4% sucrose in the repeated dose study.
Brain tissue was sampled and processed routinely. The trimmed and embedded tissue was sectioned and stained with hematoxylin-eosin (HE).

[2] = tested on: female Sprague-Dawley rats; experiment: Single dose neurotoxicity study, intranasal esketamine HCl (clinical observations, brain histopathology, toxicokinetics)
From the text: as §1
Esketamine HCl was instilled intranasally at doses of 0 (vehicle), 36, 54 or 72 mg (expressed as esketamine base) to female rats on a single day. The dose levels were obtained by 2, 3 or 4 subsequent intranasal instillations, respectively, into both nostrils at a volume of 50 μL per nostril. At each instillation, the second nostril was dosed immediately after the first nostril. The interval between subsequent instillations into both nostrils was 5 minutes.
The vehicle control group received 4 subsequent intranasal instillations of the vehicle into both nostrils (50 μL per nostril) with 5-minute intervals.
The injection volume was 5 mL/kg.
The vehicle- and the 36 and 54 mg-dosed groups consisted of 24 animals per group, while the 72 mg-dosed and positive control groups involved 30 animals per group. Four satellite animals were added to the esketamine HCl-dosed groups of main study animals for toxicokinetic (TK) purposes. In these animals the plasma exposure to esketamine was measured on the day of dosing at various time points up to and including 24 hours after the first instillation.
Prior to the perfusion, rats were anesthetized with isoflurane. After injection of 0.1 ml heparin, the blood of the rat was flushed out with a physiological saline solution by intraarterial insertion of a needle in the abdominal aorta. Thereafter the rat was perfused with glutaraldehyde 3% in potassium phosphate 0.09M and 1.4% sucrose. Due to logistic constraints at maximum 30 animals could undergo the whole-body perfusion procedure on a given day. Therefore, a staggered start of treatment was applied to all 5 groups of main study animals. Consequently, subgroups of 4 main study animals of the vehicle- and 36 and 54 mg-dosed groups, and 5 main study animals of the 72 mg-dosed and positive control groups, were dosed on 6 consecutive days, respectively.
The vehicle control, positive control, and esketamine HCl-dosed animals were sacrificed at either 48 hours (i.e., the first 12 or 15 rats per group) or 96 hours after the dose administration time (i.e., the last 12 or 15 rats per group). The brain tissue of the vehicle control-, positive control- and esketamine HCl-treated rats were processed at the same time and handled in the same way in batches of 4 or 5 animals per group.
as §2
On the day of terminal kill, a complete physical examination was performed on the rats in fasted condition and body weight was recorded. The surviving animals were anaesthetized by inhalation of an isoflurane (IsoFlo® Zoetis, Belgium)/oxygen mixture and killed by exsanguination via the carotid artery.

[3] = 14-day neurotoxicity study, 54 mg/day
[4] = single dose neurotoxicity study, 72 mg

CN[C@]1(c2ccccc2Cl)CCCCC1=O [esketamine HCl, (S)-2-(2-chlorophenyl)-2-(methylamino)cyclohexanone hydrochloride]
Abnormal respiration, incidence ([1]; 18 mg/day intranasal): 2/12
Ataxia, incidence ([1]; 18 mg/day intranasal): 12/12***
Chromodacryorrhea, incidence ([1]; 18 mg/day intranasal): 0/12
Decreased general activity, incidence ([1]; 18 mg/day intranasal): 5/12
Decubitus, incidence ([1]; 18 mg/day intranasal): 0/12
Increased general activity, incidence ([1]; 18 mg/day intranasal): 12/12***
Salivation (out of normal), incidence ([1]; 18 mg/day intranasal): 12/12***
audible respiration, incidence ([1]; 18 mg/day intranasal): 2/12
bradypnoea, incidence ([1]; 18 mg/day intranasal): 0/12
Abnormal respiration, incidence ([1]; 36 mg/day intranasal): 11/12***
Ataxia, incidence ([1]; 36 mg/day intranasal): 12/12***
Chromodacryorrhea, incidence ([1]; 36 mg/day intranasal): 0/12
Decreased general activity, incidence ([1]; 36 mg/day intranasal): 12/12***
Decubitus, incidence ([1]; 36 mg/day intranasal): 2/12
Increased general activity, incidence ([1]; 36 mg/day intranasal): 12/12***
Salivation (out of normal), incidence ([1]; 36 mg/day intranasal): 12/12***
audible respiration, incidence ([1]; 36 mg/day intranasal): 6/12**
bradypnoea, incidence ([1]; 36 mg/day intranasal): 11/12***
Abnormal respiration, incidence ([1]; 54 mg/day intranasal): 12/12***
Ataxia, incidence ([1]; 54 mg/day intranasal): 12/12***
Chromodacryorrhea, incidence ([1]; 54 mg/day intranasal): 0/12
Decreased general activity, incidence ([1]; 54 mg/day intranasal): 12/12***
Decubitus, incidence ([1]; 54 mg/day intranasal): 8/12***
Increased general activity, incidence ([1]; 54 mg/day intranasal): 12/12***
Salivation (out of normal), incidence ([1]; 54 mg/day intranasal): 12/12***
audible respiration, incidence ([1]; 54 mg/day intranasal): 6/12**
bradypnoea, incidence ([1]; 54 mg/day intranasal): 12/12***
Maximum tolerated dose (MTD) upon repeated intranasal administration ([1]; 14-day dose-range finding study (internal study)): 54 mg/day
Brain histopathology (neuronal necrosis / Olney lesions in PCG/RSC) ([1]; 14-day study, esketamine HCl intranasal up to 54 mg/day, (+)MK-801 maleate single 1 mg/kg sc, 48 h after last dose, hydrochloride, 1 mg/kg): absence of neuronal necrosis; also recorded: no histopathological lesions were noted; also recorded: did not; also recorded: No histopathological lesions were found
Mortality ([1]; up to 54 mg/day for 14 days): No test article related mortality occurred
Duration of severely decreased activity with decubitus, bradypnea, ptosis, catalepsy (anesthesia) after last instillation ([2]; 36 mg): 15 to 30 min
Duration of ataxia (with increased activity) after recovery from decreased activity ([2]; 54 mg, hydrochloride): 1.5 to 3 h and 1 to 3 h
Duration of ataxia (with increased activity) after recovery from decreased activity ([2]; 72 mg): up to 3 hours or longer
Abnormal respiration, incidence ([2]; single dose 36 mg intranasal): 22/24***
Ataxia, incidence ([2]; single dose 36 mg intranasal): 24/24***
Catalepsy, incidence ([2]; single dose 36 mg intranasal): 20/24***
Chromodacryorrhea, incidence ([2]; single dose 36 mg intranasal): 0/24
Decreased general activity, incidence ([2]; single dose 36 mg intranasal): 23/24***
Decubitus, incidence ([2]; single dose 36 mg intranasal): 23/24***
Increased general activity, incidence ([2]; single dose 36 mg intranasal): 24/24***
Narrowed palpebral fissure, incidence ([2]; single dose 36 mg intranasal): 7/24**
Piloerection, incidence ([2]; single dose 36 mg intranasal): 0/24
Salivation (out of normal), incidence ([2]; single dose 36 mg intranasal): 23/24***
audible respiration, incidence ([2]; single dose 36 mg intranasal): 10/24***
bradypnoea, incidence ([2]; single dose 36 mg intranasal): 22/24***
Abnormal respiration, incidence ([2]; single dose 54 mg intranasal): 22/24***
Ataxia, incidence ([2]; single dose 54 mg intranasal): 24/24***
Catalepsy, incidence ([2]; single dose 54 mg intranasal): 23/24***
Chromodacryorrhea, incidence ([2]; single dose 54 mg intranasal): 0/24
Decreased general activity, incidence ([2]; single dose 54 mg intranasal): 23/24***
Decubitus, incidence ([2]; single dose 54 mg intranasal): 23/24***
Increased general activity, incidence ([2]; single dose 54 mg intranasal): 24/24***
Narrowed palpebral fissure, incidence ([2]; single dose 54 mg intranasal): 10/24***
Piloerection, incidence ([2]; single dose 54 mg intranasal): 0/24
Salivation (out of normal), incidence ([2]; single dose 54 mg intranasal): 24/24***
audible respiration, incidence ([2]; single dose 54 mg intranasal): 3/24
bradypnoea, incidence ([2]; single dose 54 mg intranasal): 21/24***
Abnormal respiration, incidence ([2]; single dose 72 mg intranasal): 30/30***
Catalepsy, incidence ([2]; single dose 72 mg intranasal): 30/30***
Chromodacryorrhea, incidence ([2]; single dose 72 mg intranasal): 0/30
Decreased general activity, incidence ([2]; single dose 72 mg intranasal): 30/30***
Decubitus, incidence ([2]; single dose 72 mg intranasal): 30/30***
Increased general activity, incidence ([2]; single dose 72 mg intranasal): 29/30***
Narrowed palpebral fissure, incidence ([2]; single dose 72 mg intranasal): 22/30***
Piloerection, incidence ([2]; single dose 72 mg intranasal): 0/30
Salivation (out of normal), incidence ([2]; single dose 72 mg intranasal): 29/30***
audible respiration, incidence ([2]; single dose 72 mg intranasal): 2/30
bradypnoea, incidence ([2]; single dose 72 mg intranasal): 30/30***
Brain histopathology (neuronal necrosis / Olney lesions in PCG/RSC) ([2]; single dose study, esketamine HCl intranasal up to 72 mg, (+)MK-801 maleate 1 mg/kg sc, 48 and 96 h post-dose, hydrochloride): no morphological evidence of neuronal degeneration; also recorded: histopathological lesions were absent; also recorded: No signs of neuronal necrosis were found; also recorded: no neuropathological lesions were observed
Mortality ([2]; single intranasal dose 72 mg, within 30 minutes after 4 instillations): two main study animals and two satellite TK animals died
Mortality ([2]; single intranasal dose up to 54 mg): No test article related mortality

CN[C@]1(c2ccccc2Cl)CCCCC1=O [esketamine, (S)-2-(2-chlorophenyl)-2-(methylamino)cyclohexanone]
AUC-based safety margin compared with the maximum 84 mg clinical dose [1, 3]: ~11 fold
Cmax-based safety margin compared with the maximum 84 mg clinical dose [1, 3]: approximately 17 fold
AUC-based safety margin compared with the maximum 84 mg clinical dose [2, 4]: ~86 fold
Cmax-based safety margin compared with the maximum 84 mg clinical dose [2, 4]: approximately 60 fold
